Results from patent US20040024024A1, “Aromatic sulfone hydroxamates and their use as protease inhibitors” (priority 2001, published 2004).

How the values were obtained:
Human recombinant MMP-2 = molecular target: T1, Human recombinant MMP-2 (Homo sapiens, UniProt P08253); assay: In vitro MMP inhibition, IC50 determination (fluorogenic substrate I); type: biochemical; conditions: value outside parenthesis
T1 construct: made in house; host or cells: MMP-2-transfected p2AHT2 cells
T1 sequence (P08253 110-660): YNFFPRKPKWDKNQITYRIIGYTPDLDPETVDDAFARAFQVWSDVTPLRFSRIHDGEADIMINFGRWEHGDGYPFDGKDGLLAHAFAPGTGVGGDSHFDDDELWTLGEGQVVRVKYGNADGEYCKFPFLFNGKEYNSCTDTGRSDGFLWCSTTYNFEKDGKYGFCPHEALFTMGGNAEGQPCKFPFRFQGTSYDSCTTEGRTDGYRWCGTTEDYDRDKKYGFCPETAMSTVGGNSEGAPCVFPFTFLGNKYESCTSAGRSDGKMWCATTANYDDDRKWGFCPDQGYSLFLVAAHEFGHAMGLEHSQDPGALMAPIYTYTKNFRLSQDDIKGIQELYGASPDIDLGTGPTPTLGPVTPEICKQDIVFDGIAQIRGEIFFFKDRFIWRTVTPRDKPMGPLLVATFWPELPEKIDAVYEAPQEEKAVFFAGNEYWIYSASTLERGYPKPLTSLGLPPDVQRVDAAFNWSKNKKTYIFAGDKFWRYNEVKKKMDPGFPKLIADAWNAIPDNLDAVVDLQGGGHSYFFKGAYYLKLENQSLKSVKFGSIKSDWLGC
Method: (§1) Several hydroxamates and salts thereof were analyzed in in vitro assays to determine their ability to inhibit the MMP cleavage of peptide substrates. Inhibition (Ki) and IC50 constants were calculated from the assayed hydroxamate-MMP interactions.
(§2) Human recombinant MMP-1, MMP-2, MMP-9, MMP-13, and MMP-14 were used in this assay. All enzymes were prepared in Assignee's laboratories following usual laboratory procedures. Protocols for the preparation and use of these enzymes are available in the scientific literature. See, e.g., Enzyme Nomenclature (Academic Press, San Diego, Calif., 1992) (and the citations therein). See also, Frije et al., J. Biol. Chem., 26(24), 16766-73 (1994).
The MMP-2 proenzyme was purified by gelatin Sepharose chromatography from MMP-2-transfected p2AHT2 cells provided by Dr. Gregory Goldberg of Washington University (St. Louis, Mo.).
(§3) All MMPs were activated using 4-aminophenylmercuric acetate (“APMA”, Sigma Chemical, St. Louis, Mo.) or trypsin. MMP-9 also was activated using human recombinant MMP-3 (purified in Assignee's laboratory following standard cloning and purification techniques).
(§4) Two fluorogenic, methoxycoumarin-containing polypeptide substrates were used in the MMP inhibition assays:
(§5) MCA-ProLeuGlyLeuDpaAlaArgNH2 (I)
(§6) Here, “Dpa” is 3-(2,4-dinitrophenyl)-L-2,3-diaminopropionyl group, and “MCA” is 7-methoxycoumarin-4-yl acetyl. Substrate (I) was purchased from Baychem (Redwood City, Calif.), and substrate II was prepared Assignee's laboratory. Substrate I was used in the IC50 determination assays, while substrate II was used in the Ki determination assays. In the absence of MMP inhibitory activity, either substrate is cleaved at the Gly-Leu peptide bond. This cleavage separates the highly fluorogenic peptide from the 2,4-dinitrophenyl quencher, thus resulting in increase of fluorescent intensity.
(§7) The stock solutions of the assayed hydroxamates (or salts thereof) were prepared in 1% dimethyl sulfoxide (DMSO). These stock solutions were diluted in Buffer A (100 mM Tris-HCl, 100 mM NaCl, 10 mM CaCl2, 0.05% polyoxyethylene 23 lauryl ether, pH 7.5) to obtain solutions with different hydroxamate concentrations, i.e., assay solutions with different concentrations of the assayed MMP inhibitory compound. The experiment controls contained the same amount of Buffer A/DMSO as the assayed sample, but contained no hydroxamate (or salt thereof).
(§8) The assays from which the IC50 determinations were made were performed as follows. The MMPs were activated with either trypsin or APMA (4-aminophenylmercuric acetate, Sigma Chemical, St. Louis, Mo.). The assayed hydroxamate samples were, incubated in Microfluorrm White Plates (Dynatech, Chantilly, VA) and analyzed on a Perkin Elmer L550 plate reader (Norwalk, Conn.). The excitation wavelength was 328 nm, and the emission wavelength—415 nm. All samples (assayed hydroxamates and controls) were incubated in separate plates at room temperature in the presence of 4 μM of MMP substrate (I). As stated in the previous paragraph, samples containing varying concentrations of the same assayed hydroxamate were prepared. Inhibition was measured as a reduction in fluorescent intensity as a function of MMP inhibitor concentration.

Human recombinant MMP-13 = molecular target: T2, Human recombinant MMP-13 (Homo sapiens, UniProt P45452); assay: as above; type: biochemical
T2 construct: made in house; host or cells: baculovirus / insect cells
Method: as §1, §2
The expressed proenzyme was first purified over a heparin agarose column, and then over a chelating zinc chloride column. The proenzyme was then activated by APMA for use in the assay. Further details on baculovirus expression systems may be found in, for example, Luckow et al., J. Virol., 67, 4566-79 (1993). See also, O'Reilly et al, Baculovirus Expression Vectors: A Laboratory Manual (W. H. Freeman and Co., New York, N.Y., 1992). See also, King et al., The Baculovirus Expression System: A Laboratory Guide (Chapman & Hall, London, England, 1992).
as §3, §4, §5, §6, §7, §8

| Compound | IC50 (Human recombinant MMP-2) [nM] | IC50 (Human recombinant MMP-13; value outside parenthesis) [nM] | IC50 (Human recombinant MMP-13; value outside parentheses (Ki in parenthesis)) [nM] |
| --- | --- | --- | --- |
| O=C(NO)C1(S(=O)(=O)c2ccc(OCCCc3cccc(-c4cc(F)cc(F)c4)c3)cc2)CCOCC1 [Example 159] | 1370 | 24.4 |  |
| COCCN1CCC(C(=O)NO)(S(=O)(=O)c2ccc(OCCCn3nnc(-c4ccccc4OC)n3)cc2)CC1 [Example 180] | 443 | 17 |  |
| CC(C)c1ccc(N2CCN(CCCOc3ccc(S(=O)(=O)C4(C(=O)NO)CCOCC4)cc3)C2=O)cc1 [Example 186] | 610 | 13.5 |  |
| CCCCc1ccc(N2CCN(CCCOc3ccc(S(=O)(=O)C4(C(=O)NO)CCOCC4)cc3)C2=O)cc1 [Example 192] | 1260 | 15.4 |  |
| COCCN1CCC(C(=O)NO)(S(=O)(=O)c2ccc(OCCCn3nc(C(F)(F)F)cc3-c3ccc(OC)cc3)cc2)CC1 [Example 198] | 4530 | 835 |  |
| COCCN1CCC(C(=O)NO)(S(=O)(=O)c2ccc(OCCCn3ncc(-c4ccc(OC)cc4)c3C(F)(F)F)cc2)CC1 [Example 202] | 1600 | 41.9 |  |
| COc1ccc(C(=O)N(C)CCCOc2ccc(S(=O)(=O)C3(C(=O)NO)CCOCC3)cc2)cc1 [Example 205] | 4780 | 17.6 |  |
| O=C(NO)C1(S(=O)(=O)c2ccc(OCCCc3nc(-c4cc(C(F)(F)F)cc(C(F)(F)F)c4)no3)cc2)CCOCC1 [Example 216] | 1950 | 51.2 |  |
| CC(=O)NC(C)(C)CCOc1ccc(S(=O)(=O)C2(C(=O)NO)CCN(C3CC3)CC2)cc1 [Example 221] | 8800 | 244 |  |
| COc1ccc(C(=O)NC(C)(C)CCOc2ccc(S(=O)(=O)C3(C(=O)NO)CCNCC3)cc2)cc1 [Example 225] | 2330 | 17.8 |  |
| COCCN1CCC(C(=O)NO)(S(=O)(=O)c2ccc(OCCCn3cc(-c4cccc(OC)c4)cn3)cc2)CC1 [Example 235] | 422 | 26 |  |
| CS(=O)(=O)c1ccccc1S(=O)(=O)N1CC(Oc2ccc(S(=O)(=O)C3(C(=O)NO)CCOCC3)cc2)C1 [Example 483] |  |  | 29 |

Further lines, results first:

| IC50 (Human recombinant MMP-2) [nM] | IC50 (Human recombinant MMP-13; value outside parenthesis) [nM] | IC50 (Human recombinant MMP-13; value outside parentheses (Ki in parenthesis)) [nM] | Compound |
| --- | --- | --- | --- |
| 109 | 7.8 |  | COc1ccc(C(=O)C(C#N)CCOc2ccc(S(=O)(=O)C3(C(=O)NO)CCOCC3)cc2)cc1 (stereo not shown) [Example 176] |
| 333 | 17 |  | C[C@H]1C(=O)N(CCCOc2ccc(S(=O)(=O)C3(C(=O)NO)CCOCC3)cc2)C(=O)N1c1ccccc1 [Example 177] |
| 247 | 1.1 |  | CC(C)Cc1ccc(-c2nnc(CCCOc3ccc(S(=O)(=O)C4(C(=O)NO)CCOCC4)cc3)o2)cc1 [Example 179] |
| 32.2 | 11.4 |  | O=C1N(CCCOc2ccc(S(=O)(=O)C3(C(=O)NO)CCOCC3)cc2)CCN1c1ccccc1 [Example 196] |
| 138 | 13.3 |  | COCCN1CCC(C(=O)NO)(S(=O)(=O)c2ccc(OCCCn3cc(-c4ccc(F)cc4)cn3)cc2)CC1 [Example 222] |
| 69.7 | 11.9 |  | COCCN1CCC(C(=O)NO)(S(=O)(=O)c2ccc(OCCCn3ccc(-c4ccc(OC)cc4)n3)cc2)CC1 [Example 223] |
| 2.7 | 0.2 |  | CC(C)c1ccc(NC(=O)CCCOc2ccc(S(=O)(=O)C3(C(=O)NO)CCOCC3)cc2)cc1 [Example 227] |
